Measurements reported in patent US20110082161A1, “POWDERS FOR RECONSTITUTION” (priority 2008, published 2011).

Legend:
[1] = Safety and tolerability in Phase I single-dose trial; type: in vivo, human healthy subjects; settings: single doses of 200 mg TMC125, healthy subjects
From the text: No clinically relevant safety issues were identified with respect to the parameters studied, including AEs, laboratory and cardiovascular safety, and physical and skin examinations.

[2] = background statement; cited from earlier work

Cc1cc(C#N)cc(C)c1Oc1nc(Nc2ccc(C#N)cc2)nc(N)c1Br [TMC125, 4-[[6-amino-5-bromo-2-[(4-cyanophenyl)amino]-4-pyrimidinyl]oxy]-3,5-dimethylbenzonitrile]
safety and tolerability (AEs, laboratory, cardiovascular, physical and skin examinations) [1]: generally safe and well tolerated
solubility in aqueous media [2]: very insoluble
